Measurements taken from patent US20070082905A1, “PHARMACEUTICAL COMPOSITIONS COMPRISING N-TRIAZOLYMETHYL-PIPERAZINE COMPOUNDS AND METHODS OF USING SAME” (priority 2005, published 2007).
Structures can show the parent of a compound that is named as a salt.

Tests used:
[1] = Pharmacokinetics after a single oral dose in healthy male volunteers (plasma, HPLC-MS/MS); format: in vivo, human
Description: (§1) The pharmacokinetics after a single oral dose of the dihydrochloride salt of Compound D ((2R)-1-[3,5-bis(trifluoromethyl)benzoyl]-2-(1H-indol-3-ylmethyl)-4-{[5-(morpholinomethyl)-2H-1,2,3-triazol-4-yl]methyl}piperazine-dihydrochloride) were assessed in healthy male volunteers. Pharmacodynamic effects were also evaluated by measuring the antagonism of Substance P-induced venodialation using the hand vein compliance technique.
Nineteen healthy male non-smokers participated in a randomized, double-blind, placebo-controlled, cross-over study after each gave written informed consent. Only healthy volunteers without concurrent drug use were included in the study. […] Further exclusion criteria were: a history of allergies, known conditions causing endothelial dysfunction as diabetes, hyperlipidemia, arterial hypertension, hyperhomocysteinemia, and smoking, regular medication or treatment with drugs within the last 2 weeks, acute or chronic illness, and drug or alcohol abuse.
Next, Compound D as described herein (250 mg and 25 mg quinine sulphate) or placebo (25 mg quinine sulphate), both dissolved in water for injection and mint syrup, were administered as an oral solution. Quinine was added for blinding to mimic the bitter taste of Compound D and mint syrup to disguise the slightly yellowish colour as well as bitter taste. The infusion of Substance P (same dose as before study drug administration) was repeated at the following time points: 0.5 h, 1.25 h, 2 h, 2.75 h, 3.5 h, and 4.25 h after dosing. Each peptide application was separated by a wash-out phase of 45 min to avoid the occurrence of tolerance.
Venous blood samples for Compound D were taken 0.25 h before as well as 0.25 h, 0.5 h, 0.75 h, 1 h, 1.25 h, 2.0 h, 2.75 h, 3.5 h, 4.25 h, 6 h, 8 h, 12 h, and 24 h after administration. Blood was drawn into vials containing dry heparin, immediately stored on ice (+4° C.) and plasma was separated within 30 min at 3500 rpm for 10 min. The samples were stored at −20° C. until analysis. When time points of pharmacodynamic (hand vein compliance method) and pharmacokinetic measurements coincided the pharmacodynamic measurements were first finished before blood samples were taken, accepting a delay for pharmacokinetic sampling of about 5 min.
The plasma samples were then analyzed by extracting Compound D and its internal standard from plasma with diethylether, concentration and injection into an HPLC system with MS/MS detection. Accuracy and precision were within specifications; bias was <12%; the inter-day coefficient of variation was <14%. The lower limit of quantification was set at 0.2 ng/ml.
(§2) Source verification of all data documented in case report forms was performed by an independent clinical monitor. Nineteen individuals were randomized and thus included in the safety analysis. Only the randomized participants who completed both dosing sessions according to protocol were included in the pharmacodynamic analysis (n=17). Two participants had to be withdrawn due to methodological problems during hand vein measurements. One of these two was exposed to Compound D and complete pharmacokinetic data were obtained leading to data sets of 18 participants for pharmacokinetic analysis.
The area under the effect-time curve (AUCe) was calculated according to the trapezoidal rule. Statistical analysis of AUCe was performed using a mixed model analysis of variance (ANOVA) including the factors subject, sequence, period, and treatment. Pharmacokinetic calculations were performed using WinNonlin Professional 4.0.1 for Windows (Pharsight Corporation, Mountain View, Calif. 94040, USA). Differences in vital signs and dose-rates were assessed with Wilcoxon signed rank test, unless stated otherwise. Data are expressed as mean±SEM. A p-value of less than 0.05 was considered significant.

NK-1 receptor = target: T1, NK-1 receptor (Homo sapiens, UniProt P25103); experiment: Antagonism of Substance P-induced venodilation, dorsal hand vein compliance technique; format: in vivo
T1 construct: measuring the antagonism of Substance P-induced venodialation using the hand vein compliance technique; from tissue; host or cells: dorsal hand vein of healthy male volunteers, in vivo
T1 sequence (P25103 whole entry): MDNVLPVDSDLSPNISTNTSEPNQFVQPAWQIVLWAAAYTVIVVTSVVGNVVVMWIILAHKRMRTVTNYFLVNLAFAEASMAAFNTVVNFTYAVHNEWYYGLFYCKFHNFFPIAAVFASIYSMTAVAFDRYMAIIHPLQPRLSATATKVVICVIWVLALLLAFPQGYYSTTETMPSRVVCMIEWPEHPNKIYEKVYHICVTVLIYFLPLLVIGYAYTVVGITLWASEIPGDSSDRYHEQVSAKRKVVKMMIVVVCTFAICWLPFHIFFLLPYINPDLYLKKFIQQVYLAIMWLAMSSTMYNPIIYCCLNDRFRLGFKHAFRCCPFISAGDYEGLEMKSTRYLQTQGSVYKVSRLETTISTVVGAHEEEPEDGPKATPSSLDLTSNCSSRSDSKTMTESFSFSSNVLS
Description: as §1
The participants abstained from alcohol for at least 24 hours and from methylxanthine-containing beverages for at least 12 hours before the measurements of hand vein compliance were made. […] Venodilator responses were investigated in a quiet room maintained at a constant temperature between 23 and 25° C. using the dorsal hand vein compliance technique according to Aellig (See W. H. Aellig, A new technique for recording compliance of human hand veins. 1981. Br J Clin Pharmacol 2004; 58:S768-74) with modifications as described previously (Fricker R, et al., Endothelial venodilator response in carriers of genetic polymorphisms involved in NO synthesis and degradation. Br J Clin Pharmacol 2004; 58:169-77).
Hand vein compliance measurements started in the morning and the participants were asked to remain in a supine position throughout the study. The hand under investigation was placed on a vacuum pillow sloping upwards at an angle of 30° from horizontal. All vasoactive compounds were administered through a butterfly needle at a constant flow rate (0.25 ml·min^−1) into the vein under investigation. In each participant, the same hand vein was used for both study phases. Changes of the diameter of the vein were recorded using a linear variable differential transformer (Schaevitz®, Type 100 MHR, Pennsauken, N.J., USA) with a freely movable core (weight 0.5 g) resting over the centre of the vein under investigation. Transformer signals were amplified by a Schaevitz® CAS series signal conditioner and the output was recorded on a strip-chart recorder (LKB 2210 recorder, LKB Produkter AB®, Bromma, Sweden) at a paper speed of 0.5 cm·min^−1. The difference between the position of the core before and during inflation of a sphygmomanometer cuff on the same upper arm to 40 mmHg gave a measure of the diameter changes under a given congestion pressure. Peak heights on the strip-chart recorder were linearly proportional to the movement of the core and were measured manually in units according to standard operating procedures.
After having installed the tripod for hand vein compliance technique and having established a stable initial baseline with […] defined as 100% relaxation, increasing dose-rates of the selective α1-adrenoceptor agonist phenylephrine (Neo-Synephrine®, Abbott Laboratories, North Chicago, USA; dosages: 1.25−≦8000 ng·min^−1) were locally infused to constrict the vein by about 80%. This preconstriction baseline was defined as 0%, and the effect of subsequently administered vasodilators was expressed in percentage changes from the difference between the initial baseline diameter during normal saline and the diameter during stable preconstriction.
Once preconstriction was stable, Substance P (Calbiochem/Novabiochem AG, Läufelfingen, Switzerland) was co-administered until the maximal venodilation was reached (approximately 7-10 minutes). To prevent the peptide from sticking to tubing and syringes, substance P was dissolved in a 4% gelatine solution. Based on the experience of previous experiments in this setting, a Substance P dose rate of (1.5 pmol/min) was selected. If a participant reacted with less than 50% venodilation to the dose of 1.5 pmol/min, the dose was doubled to 3 pmol/min.
Next, Compound D as described herein (250 mg and 25 mg quinine sulphate) or placebo (25 mg quinine sulphate), both dissolved in water for injection and mint syrup, were administered as an oral solution. […]

[2] = Safety assessment (ECG, pulse rate, blood pressure, laboratory, adverse events) in healthy male volunteers; format: in vivo, human
Description: Dose-rates administered locally into the hand vein were intended not to result in any systemic effects which were monitored by repeated measurements of heart rate and blood pressure. Blood pressure was taken before and after every infusion of drugs or solvents (sodium chloride, phenylephrine, Substance P); a 12-lead ECG was monitored continuously up to the end of the hand vein compliance measurements.
Safety was assessed by measuring ECG, pulse rate, blood pressure, haematology, blood chemistry, urinalysis, and by occurrence of adverse events.
as §2

[3] = 250 mg oral, among participants

time to peak plasma concentration ([1]; 250 mg oral solution, single dose, 18 healthy participants, mean±SEM): ≤ 47 ± 3 min | ratio between maximal and minimal value for AUC (inter-individual variability) [1, 3]: 6.3 | ratio between maximal and minimal value for Cmax (inter-individual variability) [1, 3]: 6.5 | half-life ([1]; male, human, plasma, 250 mg oral solution, single dose, 18 healthy participants, mean±SEM): 9.9 ± 1.6 h | AUC(0-inf) ([1]; male, human, plasma, 250 mg oral solution, single dose, 18 healthy participants, mean±SEM, read-out: mean AUC0-∞): 183 ± 22 ng·h/mL | Cmax ([1]; male, human, plasma, 250 mg oral solution, single dose, 18 healthy participants, mean±SEM, read-out: peak plasma concentration (Cmax)): 77 ± 9 ng/mL | response to SNP (sodium nitroprusside) at the end of the experiment (NK-1 receptor; 2 μg/min SNP into hand vein after last Substance P infusion, not different from placebo (p=0.69)): 92±9% | maximum antagonizing effect (% antagonism of Substance P-induced venodilation) (NK-1 receptor; 250 mg oral, 17 healthy participants, mean±SEM, 95% CI 78, 111): 95±8% | Substance P-induced venodilation after administration (versus placebo) (NK-1 receptor; 250 mg oral, 17 healthy participants, p<0.001 vs placebo): markedly decreased | time of maximum antagonizing effect (mean) (NK-1 receptor; 250 mg oral, 17 participants, mean±SEM, 95% CI 0.96, 1.98): 1.47 ± 0.24 h | mean AUCe (area under the effect-time curve) (NK-1 receptor; 250 mg oral, 17 participants, mean±SEM, 95% CI 198, 358, p<0.001 vs placebo): 278±67 %·h | time of maximum antagonizing effect (median) (NK-1 receptor; 250 mg oral, 17 participants, median): 1.25 h
SMILES: O=C(c1cc(C(F)(F)F)cc(C(F)(F)F)c1)N1CCN(Cc2n[nH]nc2CN2CCOCC2)C[C@H]1Cc1c[nH]c2ccccc12 [Compound D, (2R)-1-[3,5-bis(trifluoromethyl)benzoyl]-2-(1H-indol-3-ylmethyl)-4-{[5-(morpholinomethyl)-2H-1,2,3-triazol-4-yl]methyl}piperazine-dihydrochloride]
plasma detectability 24 h after dosing (terminal phase) ([1]; 250 mg oral, 24 h after dosing, lower limit of quantification 0.2 ng/ml): still detectable in low concentrations in all participants | persistence of antagonistic effect relative to plasma concentration (NK-1 receptor; 250 mg oral, up to 4.25 h after dosing, counter-clockwise hysteresis): antagonistic effect persisted throughout the study while plasma concentrations declined | serious adverse events ([2]; 250 mg oral, 19 participants in safety analysis): No serious adverse event occurred | changes in heart rate, blood pressure, or ECG parameters ([2]; 250 mg oral, single dose): Neither Compound D nor placebo induced significant changes | tolerability ([2]; 250 mg oral, single dose): well tolerated in all participants | adverse events possibly related to the study drug (number) ([2]; 250 mg oral, mild headache, severe headache, cloudy urine, all resolved): 3 | heart rate ([2]; 4.5 h after administration (baseline 60±2; p=0.14)): 63±2 beats/min | diastolic blood pressure ([2]; 4.5 h after administration (baseline 68±3; p=0.12)): 72±2 mmHg | systolic blood pressure ([2]; 4.5 h after administration (baseline 124±3; p=0.10)): 127±2 mmHg
